How the values were obtained:
[1] = target: T1, CISD3 Gene Product (Miner2) (Homo sapiens, UniProt P0C7P0); assay: Stability of Fe—S cluster binding of purified NEET protein Miner2; assay type: biochemical; details: for Time (in minutes) to achieve 50% loss of bound cluster (Absorbance 458 nm), CISD3 Gene Product (Miner2) / Residual cluster bound at end of experiment (Percentage Absorbance 458 nm at time zero), CISD3 Gene Product (DMSO 11%): pH 6, 37° C., 1:3 protein:compound molar ratio; for Time (in minutes) to achieve 50% loss of bound cluster (Absorbance 458 nm), CISD3 Gene Product (Miner2): 6 μM compound, run time 180 minutes, Vehicle Control 60; for Residual cluster bound at end of experiment (Percentage Absorbance 458 nm at time zero), CISD3 Gene Product (DMSO 11%): end of 180 minutes, Vehicle Control 11%; for stabiliser or destabiliser of Fe—S cluster binding, CISD3 Gene Product (Miner2): time to 50% Fe—S cluster bound loss changed by more than 25% vs Control sample, at the concentrations tested
T1 sequence (P0C7P0 15-127): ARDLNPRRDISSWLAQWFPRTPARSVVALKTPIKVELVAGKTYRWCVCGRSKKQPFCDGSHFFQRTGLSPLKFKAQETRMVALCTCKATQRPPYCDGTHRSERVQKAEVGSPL
Procedure: (§1) The modulator effect on the NEET proteins encoded by human CISD1, CISD2, and CISD3 genes by the compounds of the invention has been tested and is reported below. Particularly, the biochemical function of the NEET proteins is measured by the stability of Fe—S cluster binding of the purified NEET proteins.
(§2) The Fe—S cluster binding capacity of NEET proteins is known to be coordinated by four amino-acids in a stretch of 16 (three Cysteine and one Histidine). As the lability of the Fe—S cluster of NEET proteins is sensitive to the environment, cluster stability measurements are one of the measures of interactions of NEET proteins with small molecules and compounds. NEET protein/2Fe-2S cluster stability can be assessed by monitoring the decay in absorbance of its characteristic 458-nm peak (characteristic of the oxidized 2Fe-2S cluster) over time. Each NEET protein (mitoNEET, NAF-1 and Miner 2) was tested for its Fe—S binding in the absence or presence of a compound according to the invention (see table 2 below). The rate of cluster release (time in minutes to achieve 50% loss of bound Fe—S cluster) was compared for each NEET protein in the presence of one of the compounds of the invention (in a 1:3 protein:compound molar ratio) relative to each protein alone.
(§3) At pH 6, all the three NEET proteins (mitoNEET, NAF-1 and Miner 2) have a characteristic rate of loss of the bound Fe—S cluster that can be measured by the decrease of absorbance at wavelength 458 nm over time, using a spectrophotometer. Thus, Bis-Tris buffer (100 mM Bis-Tris pH6, 100 mM Nacl) was used at pH 6 to dilute either DMSO (Blank sample: Bis-Tris Buffer pH 6, 6 μM DMSO), DMSO and one of the three NEET proteins (Control sample: Bis-Tris Buffer pH 6, 6 μM DMSO, 2 μM purified NEET protein) or DMSO, one of the three NEET proteins and a compound of the invention (Test sample: Bis-Tris Buffer pH 6, 6 μM DMSO, […], 6 μM compound of the invention).
(§4) A reaction mix containing DMSO diluted in the Bis-Tris Buffer with or without a compound of the invention was prepared. The purified NEET protein was the last component added to the reaction mix which was then aliquoted into 4 replicates in 96 wells plates. The absorbance at wavelength 458 nm was taken at 5 minutes intervals at 37° C. with a spectrofluorimeter. The assay run time for CISD2 gene product (NAF-1) was 500 minutes and 180 minutes for both the CISD 1 gene product (mitoNEET) and the CISD3 gene product (Miner 2).
(§5) In addition to time monitoring, residual bound Fe—S cluster to NEET protein was measured at the final point of the spectrometry assay for each Test sample and compared to the Control sample data (in parenthesis table 2). This residual binding is measured by the differential percentage between the absorbance 458 nm at time zero and the absorbance 458 nm at the end of the experiment (i.e. respectively 500 or 180 minutes as described hereabove), showing the percentage of NEET protein still able to bind a Fe—S cluster.
(§6) Analysis of the absorbance enables the time for which 50% loss of bound Fe—S cluster is reached (i.e. a 50% absorbance decrease at 458 nm) for each Test sample and each Control sample (in parenthesis table 2) to be determined. The data are then compared to determine whether the compound of the invention stabilizes or destabilizes the NEET protein/Fe—S cluster binding.

[2] = target: T2, CISD2 Gene Product (NAF-1) (Homo sapiens, UniProt Q8N5K1); assay: Stability of Fe—S cluster binding of purified NEET protein NAF-1; assay type: biochemical; details: for Time (in minutes) to achieve 50% loss of bound cluster (Absorbance 458 nm), CISD2 Gene Product (NAF-1) / Residual cluster bound at end of experiment (Percentage Absorbance 458 nm at time zero), CISD2 Gene Product (NAF-1): pH 6, 37° C., 1:3 protein:compound molar ratio; for Time (in minutes) to achieve 50% loss of bound cluster (Absorbance 458 nm), CISD2 Gene Product (NAF-1): 6 μM compound, run time 500 minutes, Vehicle Control 310; for Residual cluster bound at end of experiment (Percentage Absorbance 458 nm at time zero), CISD2 Gene Product (NAF-1): end of 500 minutes, Vehicle Control 3%; for stabiliser or destabiliser of Fe—S cluster binding, CISD2 Gene Product (NAF-1): time to 50% Fe—S cluster bound loss changed by more than 25% vs Control sample, at the concentrations tested
T2 sequence (Q8N5K1 57-135 limits assumed): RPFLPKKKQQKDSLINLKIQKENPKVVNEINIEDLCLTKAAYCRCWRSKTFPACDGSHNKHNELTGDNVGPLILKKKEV
Procedure: as §1, §2, §3, §4, §5, §6

[3] = system: H1N1 (influenza A/New Caledonia/20/99); assay: Antiviral effect on A549 cells infected with H1N1; assay type: cell-based, H1N1 A/New Caledonia/20/99 virus; details: Human A549 cells, MOI of 0.1, 48 h post-infection, MUNANA hydrolysis readout
Procedure: The antiviral effect of the compounds of the invention has been tested on A549 cell lines infected with H1N1 (influenza A/New Caledonia/20/99).
Human A549 cells (80,000 cells/well in a 96 well plate) were treated with a range of concentration of test molecules and immediately infected by H1N1 A/New Caledonia/20/99 virus (clinical isolate) at MOI of 0.1 in DMEM/1% Penicillin/streptomycin supplemented with 0.25 μg/ml TPCK trypsin (Sigma) and incubated at 37° C. in 5% CO2. 48 h post-infection, supernatants (25 μl) were collected and transferred into a 96-well black flat-bottom plate, mixed with 25 μl PBS with Ca++/Mg++(Thermo Fisher) and 50 μl of 2′-(4-Methylumbelliferyl)-α-D-N-acetylneuraminic acid sodium salt hydrate stock-solution (20 μM, MUNANA, Sigma). Plates were incubated 1 h at 37° C. and reaction is stopped by adding 100 μl of Stop Solution (glycine 0.1 M pH10.7/25% ethanol). The amount of fluorescent product released by MUNANA hydrolysis (4-MU) was measured in a Tecan spectrophotometer with excitation and emission wavelengths of 365 and 450 nm respectively.

[4] = target: T3, CISD1 Gene Product (mitoNEET) (Homo sapiens, UniProt Q9NZ45); assay: Stability of Fe—S cluster binding of purified NEET protein mitoNEET; assay type: biochemical; details: for Time (in minutes) to achieve 50% loss of bound cluster (Absorbance 458 nm), CISD1 Gene Product (mitoNEET) / Residual cluster bound at end of experiment (Percentage Absorbance 458 nm at time zero), CISD1 Gene Product (mitoNEET): pH 6, 37° C., 1:3 protein:compound molar ratio; for Time (in minutes) to achieve 50% loss of bound cluster (Absorbance 458 nm), CISD1 Gene Product (mitoNEET): 6 μM compound, run time 180 minutes, Vehicle Control 80; for Residual cluster bound at end of experiment (Percentage Absorbance 458 nm at time zero), CISD1 Gene Product (mitoNEET): end of 180 minutes, Vehicle Control 16%; for stabiliser or destabiliser of Fe—S cluster binding, CISD1 Gene Product (mitoNEET): time to 50% Fe—S cluster bound loss changed by more than 25% vs Control sample, at the concentrations tested
T3 sequence (Q9NZ45 33-108 limits assumed): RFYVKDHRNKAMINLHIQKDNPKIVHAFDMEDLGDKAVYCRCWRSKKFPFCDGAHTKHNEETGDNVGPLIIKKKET
Procedure: as §1, §2, §3, §4, §5, §6

[5] = Influenza A virus, H1N1, A549, 48 h

O=C(Nc1sc2c(c1C(=O)O)CCC(c1ccccc1)C2)c1ccccc1 (stereo not drawn) [#46]
Time (in minutes) to achieve 50% loss of bound cluster (Absorbance 458 nm), CISD3 Gene Product (Miner2) [1]: 60 min | Residual cluster bound at end of experiment (Percentage Absorbance 458 nm at time zero), CISD3 Gene Product (DMSO 11%) [1]: 13% | Time (in minutes) to achieve 50% loss of bound cluster (Absorbance 458 nm), CISD2 Gene Product (NAF-1) [2]: 90 min | Residual cluster bound at end of experiment (Percentage Absorbance 458 nm at time zero), CISD2 Gene Product (NAF-1) [2]: 14% | stabiliser or destabiliser of Fe—S cluster binding, CISD2 Gene Product (NAF-1) [2]: destabilisers | IC50 [3]: 0.15 µM | Time (in minutes) to achieve 50% loss of bound cluster (Absorbance 458 nm), CISD1 Gene Product (mitoNEET) [4]: 80 min | Residual cluster bound at end of experiment (Percentage Absorbance 458 nm at time zero), CISD1 Gene Product (mitoNEET) [4]: 18%

O=C(Nc1sc2c(c1C(=O)O)CCN(c1ccccc1)C2)c1ccccc1 [#52]
Time (in minutes) to achieve 50% loss of bound cluster (Absorbance 458 nm), CISD3 Gene Product (Miner2) [1]: during 180 minutes | Residual cluster bound at end of experiment (Percentage Absorbance 458 nm at time zero), CISD3 Gene Product (DMSO 11%) [1]: 54% | stabiliser or destabiliser of Fe—S cluster binding, CISD3 Gene Product (Miner2) [1]: Stabilisers | Time (in minutes) to achieve 50% loss of bound cluster (Absorbance 458 nm), CISD2 Gene Product (NAF-1) [2]: during 500 minutes | Residual cluster bound at end of experiment (Percentage Absorbance 458 nm at time zero), CISD2 Gene Product (NAF-1) [2]: 50% | stabiliser or destabiliser of Fe—S cluster binding, CISD2 Gene Product (NAF-1) [2]: Stabilisers | IC50 [3, 5]: 0.09 µM | Time (in minutes) to achieve 50% loss of bound cluster (Absorbance 458 nm), CISD1 Gene Product (mitoNEET) [4]: 100 min | Residual cluster bound at end of experiment (Percentage Absorbance 458 nm at time zero), CISD1 Gene Product (mitoNEET) [4]: 47% | stabiliser or destabiliser of Fe—S cluster binding, CISD1 Gene Product (mitoNEET) [4]: stabilisers

COc1ccc(C(=O)Nc2sc3c(c2C(=O)O)CCN(c2ccc(F)cc2C)C3)cc1OC [#54]
Time (in minutes) to achieve 50% loss of bound cluster (Absorbance 458 nm), CISD3 Gene Product (Miner2) [1]: 85 min | Residual cluster bound at end of experiment (Percentage Absorbance 458 nm at time zero), CISD3 Gene Product (DMSO 11%) [1]: 41% | stabiliser or destabiliser of Fe—S cluster binding, CISD3 Gene Product (Miner2) [1]: Stabilisers | Time (in minutes) to achieve 50% loss of bound cluster (Absorbance 458 nm), CISD2 Gene Product (NAF-1) [2]: 305 min | Residual cluster bound at end of experiment (Percentage Absorbance 458 nm at time zero), CISD2 Gene Product (NAF-1) [2]: 31% | IC50 [3, 5]: 0.06 µM | Time (in minutes) to achieve 50% loss of bound cluster (Absorbance 458 nm), CISD1 Gene Product (mitoNEET) [4]: 105 min | Residual cluster bound at end of experiment (Percentage Absorbance 458 nm at time zero), CISD1 Gene Product (mitoNEET) [4]: 35% | stabiliser or destabiliser of Fe—S cluster binding, CISD1 Gene Product (mitoNEET) [4]: stabilisers

CC(C)(C)C1CCc2c(sc(NC(=O)c3ccccc3)c2C(=O)O)C1 (stereo not drawn) [#71]
Time (in minutes) to achieve 50% loss of bound cluster (Absorbance 458 nm), CISD3 Gene Product (Miner2) [1]: 70 min | Residual cluster bound at end of experiment (Percentage Absorbance 458 nm at time zero), CISD3 Gene Product (DMSO 11%) [1]: 42% | Time (in minutes) to achieve 50% loss of bound cluster (Absorbance 458 nm), CISD2 Gene Product (NAF-1) [2]: 125 min | Residual cluster bound at end of experiment (Percentage Absorbance 458 nm at time zero), CISD2 Gene Product (NAF-1) [2]: 15% | stabiliser or destabiliser of Fe—S cluster binding, CISD2 Gene Product (NAF-1) [2]: destabilisers | IC50 [3]: 0.16 µM | Time (in minutes) to achieve 50% loss of bound cluster (Absorbance 458 nm), CISD1 Gene Product (mitoNEET) [4]: 100 min | Residual cluster bound at end of experiment (Percentage Absorbance 458 nm at time zero), CISD1 Gene Product (mitoNEET) [4]: 34% | stabiliser or destabiliser of Fe—S cluster binding, CISD1 Gene Product (mitoNEET) [4]: stabilisers

Source: patent US11603368B2, “Fused thiophene derivatives and their uses” (ENYO PHARMA, priority 2018, dated 2023)
